Results as given in patent publication US20250313572A1, “MACROCYCLIC MCL-1 INHIBITORS AND METHODS OF USE” (AbbVie Inc., priority 2017, published 2025).
Where two headings read alike, the source gives them in different places.

Key:
[1] = system: NCI-H929 human multiple myeloma tumor cell line; assay: NCI-H929 cell viability assay (CellTiter-Glo, 24 hours); format: cell-based
[2] = system: AMO-1 human multiple myeloma tumor cell line; assay: AMO-1 cell viability assay (CellTiter-Glo, 24 hours); format: cell-based
GST-MCL-1 = GST-MCL-1 (Homo sapiens, UniProt Q07820); assay: TR-FRET MCL-1 binding assay (competition with probe F-Bak)
GST-MCL-1, sequence (Q07820 whole entry): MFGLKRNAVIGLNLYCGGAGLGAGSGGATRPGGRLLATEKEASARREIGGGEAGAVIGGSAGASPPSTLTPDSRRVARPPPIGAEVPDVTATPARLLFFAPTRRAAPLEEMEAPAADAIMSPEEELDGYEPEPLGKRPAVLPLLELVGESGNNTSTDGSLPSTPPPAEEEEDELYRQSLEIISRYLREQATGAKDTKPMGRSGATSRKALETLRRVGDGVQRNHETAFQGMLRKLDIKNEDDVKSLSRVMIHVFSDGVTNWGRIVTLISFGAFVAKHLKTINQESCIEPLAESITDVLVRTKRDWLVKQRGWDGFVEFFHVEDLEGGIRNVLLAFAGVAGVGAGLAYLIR
Experimental: Tb-anti-GST antibody was purchased from Invitrogen (Catalog No. PV4216).
For the assay, an acoustic dispenser was used to prepare dilution series from 10 mM test compounds in 100% DMSO and directly transfer 160 nL into low volume 384-well assay plates. 8 μL of a protein/probe/antibody mix was then added to each well resulting in final concentrations listed below: • Test compound: 11 three-fold dilutions beginning at 25 μM
The samples were then mixed on a shaker for 1 minute and incubated for an additional 2 hours at room temperature. For each assay plate, a probe/antibody and protein/antibody/probe mixture were included as a negative and a positive control, respectively. Fluorescence was measured on the Envision (Perkin Elmer) using a 340/35 nm excitation filter and 520/525 (F-Bak) and 495/510 nm (Tb-labeled anti-his antibody) emission filters. […] The TR-FRET assay can be performed in the presence of varying concentrations of human serum (HS) or fetal bovine serum (FBS). Compounds were tested both without HS and in the presence of 10% HS.

[3] = Homo sapiens, NCI-H929, 24 h, read-out: H929 Viability IC50 (μM, 10% FBS), 10% FBS, 24 hours of compound treatment
[4] = Homo sapiens, AMO1, 24 h, read-out: AMO-1 Viability IC50 (μM, 10% FBS), 10% FBS, 24 hours of compound treatment
[5] = MCL-1 Binding Ki (nM, 10% HS), in the presence of 10% HS (human serum)
[6] = without HS, read-out: MCL-1 Binding Ki

Structure (SMILES)	IC50 [1, 3] [µM]	IC50 [2, 4] [µM]	Ki (GST-MCL-1; [5]) [nM]	Ki (GST-MCL-1; [6]) [nM]	IC50 ([1]; read-out: H929 Viability IC50 (μM, 10% FBS), 10% FBS, 24 hours of compound treatment) [µM]	IC50 ([2]; read-out: AMO-1 Viability IC50 (μM, 10% FBS), 10% FBS, 24 hours of compound treatment) [µM]
COCCOCCOCCOCCOCCOCCOCCC(=O)N1CCC[C@@H]1c1nccc(COc2ccc3cc2C[C@H](C(=O)O)Oc2ncnc4sc(-c5ccc(F)cc5)c(c24)-c2ccc(c(Cl)c2C)O[C@H](CN2CCN(C)CC2)CO3)n1 [Example 43, (7R,16R)-19-chloro-1-(4-fluorophenyl)-20-methyl-16-[(4-methylpiperazin-1-yl)methyl]-10-({2-[(2R)-1-(23-oxo-2,5,8,11,14,17,20-heptaoxatricosan-23-yl)pyrrolidin-2-yl]pyrimidin-4-yl}methoxy)-7,8,15,16-tetrahydro-18,21-etheno-13,9-(metheno)-6,14,17-trioxa-2-thia-3,5-diazacyclononadeca[1,2,3-cd]indene-7-carboxylic Acid]	> 1	> 1	39.4	41.1	–	–
COCCOCCOCCOCCOCCOCC1(F)CC=C(c2nccc(COc3ccc4cc3C[C@H](C(=O)O)Oc3ncnc5sc(-c6ccc(F)cc6)c(c35)-c3c(C)c(Cl)c(c(Cl)c3C)O[C@H](CN3CCN(C)CC3)CO4)n2)CC1 (single isomer, unassigned) [Example 100, (7R,16R)-19,23-dichloro-10-({2-[(4R*)-4-fluoro-4-(2,5,8,11,14,17-hexaoxaoctadecan-1-yl)cyclohex-1-en-1-yl]pyrimidin-4-yl}methoxy)-1-(4-fluorophenyl)-20,22-dimethyl-16-[(4-methylpiperazin-1-yl)methyl]-7,8,15,16-tetrahydro-18,21-etheno-13,9-(metheno)-6,14,17-trioxa-2-thia-3,5-diazacyclononadeca[1,2,3-cd]indene-7-carboxylic Acid]	–	–	0.176	0.017	0.000547	0.00033
Cc1c(Cl)c2c(Cl)c(C)c1-c1c(-c3ccc(F)cc3)sc3ncnc(c13)O[C@@H](C(=O)O)Cc1cc(ccc1OCc1ccnc(N3C[C@@H]4[C@H](C3)[C@H]4C(=O)O)n1)OC[C@@H](CN1CCN(C)CC1)O2 [Example 36, (7R,16R)-10-({2-[(1R,5S,6r)-6-carboxy-3-azabicyclo[3,1,0]hexan-3-yl]pyrimidin-4-yl}methoxy)-19,23-dichloro-1-(4-fluorophenyl)-20,22-dimethyl-16-[(4-methylpiperazin-1-yl)methyl]-7,8,15,16-tetrahydro-18,21-etheno-13,9-(metheno)-6,14,17-trioxa-2-thia-3,5-diazacyclononadeca[1,2,3-cd]indene-7-carboxylic Acid]	0.653	0.32	1.16	0.144	–	–
COCCOCCOCCOCCOCCOCC1(F)CC=C(c2nccc(COc3ccc4cc3C[C@H](C(=O)O)Oc3ncnc5sc(-c6ccc(F)cc6)c(c35)-c3c(C)c(Cl)c(c(Cl)c3C)O[C@H](CN3CCN(C)CC3)CO4)n2)CC1 (single isomer, unassigned) [Example 97, (7R,16R)-19,23-dichloro-10-({2-[(4S*)-4-fluoro-4-(2,5,8,11,14,17-hexaoxaoctadecan-1-yl)cyclohex-1-en-1-yl]pyrimidin-4-yl}methoxy)-1-(4-fluorophenyl)-20,22-dimethyl-16-[(4-methylpiperazin-1-yl)methyl]-7,8,15,16-tetrahydro-18,21-etheno-13,9-(metheno)-6,14,17-trioxa-2-thia-3,5-diazacyclononadeca[1,2,3-cd]indene-7-carboxylic Acid]	0.000482	0.0006	0.137	0.016	–	–
COCCOCCOc1ccc(-c2ccccc2OC)nc1COc1ccc2cc1C[C@H](C(=O)O)Oc1ncnc3sc(-c4ccc(F)cc4)c(c13)-c1c(C)c(Cl)c(c(Cl)c1C)O[C@H](CN1CCN(C)CC1)CO2 [Example 178, (7R,16R)-19,23-dichloro-1-(4-fluorophenyl)-10-({3-[2-(2-methoxyethoxy)ethoxy]-6-(2-methoxyphenyl)pyridin-2-yl}methoxy)-20,22-dimethyl-16-[(4-methylpiperazin-1-yl)methyl]-7,8,15,16-tetrahydro-18,21-etheno-9,13-(metheno)-6,14,17-trioxa-2-thia-3,5-diazacyclononadeca[1,2,3-cd]indene-7-carboxylic Acid]	0.37	0.152	–	–	–	–
Cc1c(Cl)c2c(Cl)c(C)c1-c1c(-c3ccc(F)cc3)sc3ncnc(c13)O[C@@H](C(=O)O)Cc1cc(ccc1OCc1ccnc(OC[C@@H]3CN(C)CCCO3)n1)OC[C@@H](CN1CCN(C)CC1)O2 [Example 177, (7R,16R)-19,23-dichloro-1-(4-fluorophenyl)-20,22-dimethyl-10-[(2-{[(2S)-4-methyl-1,4-oxazepan-2-yl]methoxy}pyrimidin-4-yl)methoxy]-16-[(4-methylpiperazin-1-yl)methyl]-7,8,15,16-tetrahydro-18,21-etheno-13,9-(metheno)-6,14,17-trioxa-2-thia-3,5-diazacyclononadeca[1,2,3-cd]indene-7-carboxylic Acid]	0.00929	0.00422	–	–	–	–
Cc1c(Cl)c2c(Cl)c(C)c1-c1c(-c3ccc(F)cc3)sc3ncnc(c13)O[C@@H](C(=O)O)Cc1cc(ccc1OCc1ccnc(-c3ccc(O[C@H]4CO[C@H]5[C@@H]4OC[C@@H]5O)cc3)n1)OC[C@@H](CN1CCN(C)CC1)O2 [Example 174, (7R,16R)-19,23-dichloro-1-(4-fluorophenyl)-10-{[2-(4-{[(3S,3aR,6S,6aR)-6-hydroxyhexahydrofuro[3,2-b]furan-3-yl]oxy}phenyl)pyrimidin-4-yl]methoxy}-20,22-dimethyl-16-[(4-methylpiperazin-1-yl)methyl]-7,8,15,16-tetrahydro-18,21-etheno-13,9-(metheno)-6,14,17-trioxa-2-thia-3,5-diazacyclononadeca[1,2,3-cd]indene-7-carboxylic Acid]	–	–	0.2	0.008	–	–
Cc1c(Cl)c2c(Cl)c(C)c1-c1c(-c3ccc(F)cc3)sc3ncnc(c13)O[C@@H](C(=O)O)Cc1cc(ccc1OCc1ccnc([C@H]3CC[C@H](OCCOCC4COCCO4)CC3)n1)OC[C@@H](CN1CCN(C)CC1)O2 (stereo partly drawn) [Example 92, (7R,16R)-19,23-dichloro-10-({2-[(1r,4r)-4-{2-[(1,4-dioxan-2-yl)methoxy]ethoxy}cyclohexyl]pyrimidin-4-yl}methoxy)-1-(4-fluorophenyl)-20,22-dimethyl-16-[(4-methylpiperazin-1-yl)methyl]-7,8,15,16-tetrahydro-18,21-etheno-13,9-(metheno)-6,14,17-trioxa-2-thia-3,5-diazacyclononadeca[1,2,3-cd]indene-7-carboxylic Acid]	0.00031	0.000223	–	–	–	–
Cc1c(Cl)c2c(Cl)c(C)c1-c1c(-c3ccc(F)cc3)sc3ncnc(c13)O[C@@H](C(=O)O)Cc1cc(ccc1OCc1ccnc(-c3ccc(OC[C@@H]4CN(C)CCCO4)cc3)n1)OC[C@@H](CN1CCN(C)CC1)O2 [Example 173, (7R,16R)-19,23-dichloro-1-(4-fluorophenyl)-20,22-dimethyl-10-{[2-(4-{[(2S)-4-methyl-1,4-oxazepan-2-yl]methoxy}phenyl)pyrimidin-4-yl]methoxy}-16-[(4-methylpiperazin-1-yl)methyl]-7,8,15,16-tetrahydro-18,21-etheno-13,9-(metheno)-6,14,17-trioxa-2-thia-3,5-diazacyclononadeca[1,2,3-cd]indene-7-carboxylic Acid]	0.00452	0.00114	–	–	–	–
COCCOCCOCCOCCOCCOC[C@H]1CN(c2nccc(COc3ccc4cc3C[C@H](C(=O)O)Oc3ncnc5sc(-c6ccc(F)cc6)c(c35)-c3c(C)c(Cl)c(c(Cl)c3C)O[C@H](CN3CCN(C)CC3)CO4)n2)CCO1 [Example 83, (7R,16R)-19,23-dichloro-1-(4-fluorophenyl)-10-({2-[(2R)-2-(2,5,8,11,14,17-hexaoxaoctadecan-1-yl)morpholin-4-yl]pyrimidin-4-yl}methoxy)-20,22-dimethyl-16-[(4-methylpiperazin-1-yl)methyl]-7,8,15,16-tetrahydro-18,21-etheno-13,9-(metheno)-6,14,17-trioxa-2-thia-3,5-diazacyclononadeca[1,2,3-cd]indene-7-carboxylic Acid]	0.0026	–	–	–	–	–
Cc1c(Cl)c2c(Cl)c(C)c1-c1c(-c3ccc(F)cc3)sc3ncnc(c13)O[C@@H](C(=O)O)Cc1cc(ccc1OCc1ccnc(-c3ccc(OCCN4CCOCC4)cc3)n1)OC[C@@H](CN1CCN(C)CC1)O2 [Example 168, (7R,16R)-19,23-dichloro-1-(4-fluorophenyl)-20,22-dimethyl-16-[(4-methylpiperazin-1-yl)methyl]-10-[(2-{4-[2-(morpholin-4-yl)ethoxy]phenyl}pyrimidin-4-yl)methoxy]-7,8,15,16-tetrahydro-18,21-etheno-13,9-(metheno)-6,14,17-trioxa-2-thia-3,5-diazacyclononadeca[1,2,3-cd]indene-7-carboxylic Acid]	–	–	0.671	0.025	–	–
